Assays:
[1] = cited from earlier work
[2] = system: Rabbits (New Zealand White); experiment: Acute Eye Irritation/Corrosion Test in Rabbits; format: in vivo
Protocol: Acute Eye Irritation/Corrosion Test for Diethylene Glycol Monoethyl Ether (Transcutol HP) in Rabbits • Test Item Transcutol HP • Diluted with: Water for injection • Test System Rabbits (New Zealand White) • Total No. of Animals: 6 animals for initial test • 12 animals for confirmatory test • No. of groups: 6 Study Design:
Initial test is carried out by using one animal per group.
Irrigation was carried out after 24 hrs from the treatment and the animals are again observed for symptoms of toxicity.
Confirmatory test is carried out by using two animals per group.
The dosing methodology and irrigation procedure was same as mentioned in the initial test and the observations were found as follows: […]

[3] = Intramuscular, Intravenous and Intraocular safety studies; details: in vivo
[4] = cited from earlier work; remark: listed apart in the source
physchem = details: organic solvent or mixture
Protocol: Progesterone is dissolved in solution of 20% Benzyl alcohol giving a clear solution and add Diethylene glycol monoethyl ether with constant stirring and make the volume up to 100 ml with Diethylene glycol monoethyl ether. […] This solution is filled in 3 ml clear glass vial.

In the case of CCOCCOCCO [Diethylene glycol monoethyl ether, 2-(2-Ethoxyethoxy)ethanol], the “Solubility in water (descriptive)” value [1] is listed as “soluble”, the “eye irritation, confirmatory test” value ([2]; 1 hr, first three groups) is listed as “no test item related effects” and the “eye irritation, confirmatory test” value ([2]; 1 hr, group 4 and group 5) is listed as “Mild irritation”. For the same molecule, the “eye irritation, confirmatory test” value ([2]; 1 hr, group 6) was “severe irritation”, the “eye irritation, initial test” value ([2]; 24 hr, all animals except group 6) was “normal” and the “eye irritation, confirmatory test” value ([2]; 24 hr, group 1 to group 3) was “normal”. The “eye irritation, confirmatory test” value ([2]; 24 hr, group 4 and group 5) was “mild irritation including Chemosis, lacrimation and mild pupillary constriction”, the “eye irritation, confirmatory test” value ([2]; 24 hr, group 6) was “severe irritation” and the “eye irritation, initial test” value ([2]; 24 hr, group 6) was “mild irritation including Chemosis and Lacrimation”. For the same molecule, the “ocular toxicity, summary” value ([2]; concentration of 100%, intra occularly) was “irritant but not corrosive”, the “eye irritation, initial test” value ([2]; first hour, first three groups) was “no test item related effects” and the “eye irritation, initial test” value ([2]; first hour, group 4 and 5) was “Mild irritation”. The “eye irritation, initial test” value ([2]; first hour, group 6) was “moderate irritation”, the “corrosion effect, initial test” value ([2]; rabbit, in vivo) was “no corrosion effect” and the “ocular toxicity, summary” value ([2]; up to 80% of concentration) was “not showing any occular toxicity”. For the same molecule, the “safety in Intramuscular, Intravenous and Intraocular studies” value [3] was “safe and non toxic”.
For COCCCOc1ccnc(C[S+]([O-])c2nc3ccccc3[nH]2)c1C (racemic) [Rabeprazole, (RS)-2-([4-(3-methoxypropoxy)-3-methylpyridin-2-yl]methylsulfinyl)-1H-benzo[d]imidazole], the “Solubility in water (descriptive)” value [1] is listed as “insoluble” and the bioavailability ([4]; enteric coated tablet) is listed as 51%.
In the case of C[C@]12CC[C@H]3[C@@H](CCC4=CC(=O)CC[C@@]43C)[C@@H]1CC[C@@H]2O [Testosterone], the “Solubility in water (descriptive)” value [1] is listed as “practically insoluble” and the half-life ([4]; in vivo) is listed as 2 to 4 h.
In the case of CC(=O)[C@H]1CC[C@H]2[C@@H]3CCC4=CC(=O)CC[C@]4(C)[C@H]3CC[C@]12C [Progesterone, pregn-4-ene-3,20-dione], the solubility in water ([1]; at 19° C.) is given as < 0.1 g/100 ml, the “Solubility in water (descriptive)” value [1] is given as “insoluble” and the solubility (physchem) is given as ≤ 100 mg/mL.

From patent US9827315B2, “Compositions of pharmaceutical actives containing diethylene glycol monoethyl ether or other alkyl derivatives” (THEMIS MEDICARE LIMITED, priority 2013, dated 2017)
